Reference: ChEMBL document CHEMBL1201862, “PubChem BioAssay data set” (2004)
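How tested: cells in 96-well plates exposed to compound for 48 hours at five concentrations. GI50: concentration for 50% inhibition of growth.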 Active and inactive are the calls of the source. Cut-off read from the data, not from the text of the source: active = GI50 up to about 1.1 µM and inactive = higher.

Tests used:
Experiment in all cases: DTP human tumour cell line panel, 48 h
PC-3 = system: PC-3
A498 = system: A498
UACC-62 = system: UACC-62
786-0 = system: 786-0
DU-145 = system: DU-145
M14 = system: M14
SK-MEL-5 = system: SK-MEL-5
SR = system: SR
NCI-H226 = system: NCI-H226
MOLT-4 = system: MOLT-4
SNB-19 = system: SNB-19
K562 = system: K562
U-251 = system: U-251
RXF 393 = system: RXF 393
RPMI-8226 = system: RPMI-8226
SNB-75 = system: SNB-75
COLO 205 = system: COLO 205
SK-MEL-2 = system: SK-MEL-2
SK-OV-3 = system: SK-OV-3
SK-MEL-28 = system: SK-MEL-28

Compound	GI50 (PC-3)	GI50 (A498)	GI50 (UACC-62)	GI50 (786-0)	GI50 (DU-145)	GI50 (M14)	GI50 (SK-MEL-5)	GI50 (SR)	GI50 (NCI-H226)	GI50 (MOLT-4)	GI50 (SNB-19)	GI50 (K562)	GI50 (U-251)	GI50 (RXF 393)	GI50 (RPMI-8226)	GI50 (SNB-75)	GI50 (COLO 205)	GI50 (SK-MEL-2)	GI50 (SK-OV-3)	GI50 (SK-MEL-28)
CC(C)(C)C1CCC2(CC1)CCN(CCCN1CCOCC1)CC2	> 100 µM (inactive)	34.7 µM (inactive)	8.91 µM (inactive)	20.2 µM (inactive)	> 100 µM (inactive)	12.2 µM (inactive)	8.05 µM (inactive)	27.1 µM (inactive)	> 95.7 µM (inactive)	24.5 µM (inactive)	> 71.4 µM (inactive)	8.51 µM (inactive)	> 35.2 µM (inactive)	27.4 µM (inactive)	17.5 µM (inactive)	24.8 µM (inactive)	16.3 µM (inactive)	20 µM (inactive)	> 100 µM (inactive)	16.9 µM (inactive)
O=C(O)CCc1nc2ccccc2[nH]1 [PROCODAZOLE]	> 100 µM (inactive)	> 100 µM (inactive)	> 100 µM (inactive)	> 100 µM (inactive)	> 100 µM (inactive)	> 100 µM (inactive)	> 100 µM (inactive)	> 100 µM (inactive)	> 100 µM (inactive)	> 100 µM (inactive)	> 100 µM (inactive)	> 100 µM (inactive)	> 100 µM (inactive)	> 100 µM (inactive)	> 100 µM (inactive)	> 100 µM (inactive)	> 100 µM (inactive)	> 100 µM (inactive)	0.237 µM (active)	> 100 µM (inactive)
C[C@H](CCc1nc(C#N)c(N)o1)[C@H]1CC[C@H]2[C@@H]3[C@@H](O)CC4C[C@@H](O)CC[C@]4(C)[C@H]3C[C@@H](O)[C@]12C (stereo not given in full)	9.95 µM (inactive)	39.1 µM (inactive)	10.7 µM (inactive)	19.2 µM (inactive)	28.1 µM (inactive)	29 µM (inactive)	18.9 µM (inactive)	17 µM (inactive)	21.2 µM (inactive)	15 µM (inactive)	23.9 µM (inactive)	23.1 µM (inactive)	20.7 µM (inactive)	16 µM (inactive)	6.75 µM (inactive)	10.3 µM (inactive)	18.2 µM (inactive)	19.9 µM (inactive)	37.5 µM (inactive)	25.6 µM (inactive)
COc1ccc2c3c1OC1C(=O)C=CC4(O)C(C2)NCC[C@@]314 (stereo not given in full)	3.3 µM (inactive)	3.29 µM (inactive)	3.44 µM (inactive)	1.58 µM (inactive)	3.24 µM (inactive)	2.3 µM (inactive)	4.16 µM (inactive)	1.76 µM (inactive)	8.75 µM (inactive)	1.28 µM (inactive)	5.55 µM (inactive)	2.51 µM (inactive)	2.13 µM (inactive)	1.39 µM (inactive)	1.12 µM (inactive)	1.25 µM (inactive)	1.44 µM (inactive)	2.4 µM (inactive)	3.18 µM (inactive)	2.92 µM (inactive)
CC1(C)C2C=C(CCN3CCOCC3)CC1C2 (stereo not given)	> 100 µM (inactive)	> 100 µM (inactive)	> 100 µM (inactive)	> 100 µM (inactive)	> 100 µM (inactive)	> 100 µM (inactive)	> 100 µM (inactive)	> 100 µM (inactive)	64.9 µM (inactive)	> 100 µM (inactive)	> 100 µM (inactive)	> 100 µM (inactive)	> 100 µM (inactive)	> 100 µM (inactive)	> 100 µM (inactive)	71.3 µM (inactive)	> 100 µM (inactive)	> 100 µM (inactive)	> 100 µM (inactive)	> 100 µM (inactive)
